Experimental data taken from publication PMC10907374, “G2019S selective LRRK2 kinase inhibitor abrogates mitochondrial DNA damage” (NPJ Parkinson's Disease, 2024).
“And” between values parts separate entries of the source, which are not always exact repeats. Equal entries are not always repeated. “Also recorded” adds a separate entry of the source.

Experiments:
[1] = biological target: T1, G2019S variant of human LRRK2 (G2019S-LRRK2) (Homo sapiens, UniProt Q5S007, G2019S); experiment: LRRK2 pSer1292 autophosphorylation western immunoblot in HEK293 cells stably overexpressing G2019S-LRRK2; type: cell-based; settings: for decrease in LRRK2 pSer1292 levels: G2019S-LRRK2 cells, 2 h
T1 construct: WT-LRRK2 or G2019S-LRRK2 overexpressing cells show expression of LRRK2 pSer1292 and full-length LRRK2; expressed in transfected cells
T1 sequence (Q5S007 whole entry G2019S): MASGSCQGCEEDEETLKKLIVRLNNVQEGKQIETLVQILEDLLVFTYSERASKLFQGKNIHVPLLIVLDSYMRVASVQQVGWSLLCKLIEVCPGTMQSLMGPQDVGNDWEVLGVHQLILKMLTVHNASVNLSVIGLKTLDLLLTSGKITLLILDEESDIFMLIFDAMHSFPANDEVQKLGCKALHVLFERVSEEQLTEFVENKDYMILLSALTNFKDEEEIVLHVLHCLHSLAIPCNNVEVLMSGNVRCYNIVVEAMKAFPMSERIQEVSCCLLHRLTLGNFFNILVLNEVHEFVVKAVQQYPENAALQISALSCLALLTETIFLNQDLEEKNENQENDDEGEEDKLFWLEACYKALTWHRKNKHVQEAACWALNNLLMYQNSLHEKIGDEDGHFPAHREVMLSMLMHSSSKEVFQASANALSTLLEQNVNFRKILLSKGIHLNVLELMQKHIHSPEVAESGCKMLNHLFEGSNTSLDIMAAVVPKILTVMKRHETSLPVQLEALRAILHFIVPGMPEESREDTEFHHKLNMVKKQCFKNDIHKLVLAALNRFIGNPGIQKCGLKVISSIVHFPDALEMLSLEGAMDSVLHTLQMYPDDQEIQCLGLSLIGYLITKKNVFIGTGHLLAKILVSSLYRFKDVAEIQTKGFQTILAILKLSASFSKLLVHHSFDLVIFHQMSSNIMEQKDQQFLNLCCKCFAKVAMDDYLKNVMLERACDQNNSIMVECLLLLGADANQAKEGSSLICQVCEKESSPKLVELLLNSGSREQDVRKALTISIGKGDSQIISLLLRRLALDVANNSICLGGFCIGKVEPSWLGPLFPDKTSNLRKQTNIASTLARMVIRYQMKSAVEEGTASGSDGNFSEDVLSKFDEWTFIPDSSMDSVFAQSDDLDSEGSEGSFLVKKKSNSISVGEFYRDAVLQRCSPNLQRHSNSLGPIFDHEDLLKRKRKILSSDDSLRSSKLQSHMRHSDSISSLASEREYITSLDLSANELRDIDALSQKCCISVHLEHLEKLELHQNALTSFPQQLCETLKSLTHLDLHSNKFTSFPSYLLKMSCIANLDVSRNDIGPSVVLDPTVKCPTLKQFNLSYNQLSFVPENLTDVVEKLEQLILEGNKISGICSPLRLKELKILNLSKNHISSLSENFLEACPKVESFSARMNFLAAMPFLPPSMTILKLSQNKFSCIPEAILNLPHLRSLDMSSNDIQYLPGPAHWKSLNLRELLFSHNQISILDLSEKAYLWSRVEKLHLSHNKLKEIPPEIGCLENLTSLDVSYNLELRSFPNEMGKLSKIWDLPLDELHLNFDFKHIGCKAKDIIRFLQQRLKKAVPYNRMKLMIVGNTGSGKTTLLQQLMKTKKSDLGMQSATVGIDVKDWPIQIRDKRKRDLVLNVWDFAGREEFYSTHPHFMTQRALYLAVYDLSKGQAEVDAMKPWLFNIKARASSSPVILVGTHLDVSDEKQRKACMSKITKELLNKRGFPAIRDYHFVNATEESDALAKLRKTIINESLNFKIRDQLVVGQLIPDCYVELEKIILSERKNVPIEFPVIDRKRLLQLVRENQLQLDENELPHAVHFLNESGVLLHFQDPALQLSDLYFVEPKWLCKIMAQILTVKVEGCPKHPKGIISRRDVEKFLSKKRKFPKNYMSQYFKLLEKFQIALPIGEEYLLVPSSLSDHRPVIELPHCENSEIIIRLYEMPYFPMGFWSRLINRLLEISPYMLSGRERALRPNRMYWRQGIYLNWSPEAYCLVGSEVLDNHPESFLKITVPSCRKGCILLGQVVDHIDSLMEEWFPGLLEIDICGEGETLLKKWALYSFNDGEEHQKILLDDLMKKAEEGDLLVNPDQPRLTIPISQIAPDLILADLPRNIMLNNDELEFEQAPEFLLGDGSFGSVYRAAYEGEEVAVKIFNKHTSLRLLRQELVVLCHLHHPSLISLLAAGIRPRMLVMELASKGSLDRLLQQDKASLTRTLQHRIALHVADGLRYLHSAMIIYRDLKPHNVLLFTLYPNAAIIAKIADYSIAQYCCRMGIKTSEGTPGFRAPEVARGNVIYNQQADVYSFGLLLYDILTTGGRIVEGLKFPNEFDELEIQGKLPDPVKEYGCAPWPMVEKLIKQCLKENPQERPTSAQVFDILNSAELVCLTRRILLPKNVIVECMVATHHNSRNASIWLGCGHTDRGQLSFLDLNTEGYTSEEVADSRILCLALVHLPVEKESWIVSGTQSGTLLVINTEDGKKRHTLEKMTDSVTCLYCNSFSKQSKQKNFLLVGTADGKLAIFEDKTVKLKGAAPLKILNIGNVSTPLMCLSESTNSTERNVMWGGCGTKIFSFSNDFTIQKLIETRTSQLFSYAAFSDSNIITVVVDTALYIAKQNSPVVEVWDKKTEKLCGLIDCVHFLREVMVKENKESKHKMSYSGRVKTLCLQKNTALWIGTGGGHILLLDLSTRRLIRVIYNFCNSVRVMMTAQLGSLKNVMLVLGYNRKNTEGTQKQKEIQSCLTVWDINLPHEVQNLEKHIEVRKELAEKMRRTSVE
Procedure: (§1) Cells were plated at a density of 0.3 × 10^6 cells in a 6-well dish and treated at ~40–50% confluency. At the time of harvest, cells were collected and either protein collected or DNA extracted as described below.
(§2) For LRRK2-WT or G2019S-LRRK2, ~1.5 million cells were pelleted and resuspended in 75 μl of lysis buffer [(RIPA Buffer (Sigma-Aldrich, R0278-50ML), protease inhibitor cocktail (Sigma-Aldrich, P8340), and Halt phosphatase inhibitor cocktail (Thermo Fisher, 78420)]. For LCLs, five million cells were pelleted and resuspended in 100 µl of lysis buffer. For both types of cells lysates were centrifuged at 10,000 × g after a 10 min incubation on ice, and the supernatant was collected. Protein was quantified using the DC protein assay (Bio-Rad, 5000112). In total, 50 μg of protein was loaded for HEK293 LRRK2-WT or G2019S-LRRK2 cells. Due to the differing endogenous LRRK2 levels, 40 µg of ND02559, 60 µg of ND00264, or 100 µg of ND00011 and ND01618 of protein sample was loaded. Protein samples were incubated at 100 °C for 5 min with NuPAGE Sample loading dye (Thermo Fisher, NP0007) and dithiothreitol as reducing agent. After 4–20% SDS-PAGE, the blots were blocked in 5% w/v nonfat dry milk in 1X PBST (0.05% Tween 20). For our investigations, the following primary antibodies were used: mouse anti-LRRK2 N241a (Antibodies INC, 75-253, 1:5000 for HEK293 cells and 1:2000 for LCLs), rabbit anti-LRRK2 pS935 (Abcam, ab133450, 1:10,000 for HEK293 cells and 1:2000 for LCLs), mouse anti-β-actin (Novus, 8H10D10, 1:10,000), and rabbit anti-LRRK2 pS1292 (Abcam, ab203181, 1:500). The blots were then probed with fluorescent-labeled secondary antibodies, IRDye donkey anti-mouse and anti-rabbit at 1:10,000 (LI-COR, 926-32212, 926-68072), and scanned using an Odyssey Imaging scanner (LI-COR). Fluorescence intensities were quantified using ImageStudio Lite software (LI-COR), and the signal from the protein of interest was normalized to the fluorescence intensity of either LRRK2 or β-actin. Values were averaged from at least three technical replicates within a cell line, or two biological replicates (two healthy control lines and two PD LCLs). All blots were derived from the same experiment and processed in parallel.

[2] = design: method as in PMID 33197196; settings: cited from earlier work
[3] = biological target: T1, G2019S variant of human LRRK2 (G2019S-LRRK2); experiment: LRRK2 pSer935 quantitative western immunoblot in HEK293 cells stably overexpressing G2019S-LRRK2; type: cell-based
Procedure: as §1
as §2, with “Values were averaged from at least three technical replicates within a cell line, or two biological replicates (two healthy control lines and two PD LCLs). All blots were derived from the same experiment and processed in parallel.” left out

[4] = biological target: T2, LRRK2 in healthy control lymphoblastoid cells (LCLs) (Homo sapiens, UniProt Q5S007); experiment: LRRK2 pSer935 western immunoblot in healthy control-derived LCLs; type: cell-based; settings: 10 and 100 nM, 2 h
T2 construct: Due to the differing endogenous LRRK2 levels; host or cells: healthy subject control-derived lymphoblastoid cell lines (n = 2)
T2 sequence (Q5S007 whole entry): as the sequence (Q5S007 whole entry G2019S) above, with S2019G counted along it
Procedure: PD patient G2019S LRRK2 (n = 2) and healthy subject control (n = 2)-derived LCLs were obtained from the NINDS Coriell biorepository (ID numbers are ND00011, ND00264, ND01618, ND02559). […] LCLs were cultured at 37 °C, 5% CO2, in RPMI-1640 (Sigma-Aldrich, R8758), 15% heat-inactivated fetal bovine serum (VWR Seradigm, 97068-091) and 0.5% Penicillin/Streptomycin (Corning, 30-002-CI). […] All in vitro experiments were repeated at least three times from distinct samples.
(§3) For LRRK2-WT or G2019S-LRRK2, ~1.5 million cells were pelleted and resuspended in 75 μl of lysis buffer [(RIPA Buffer (Sigma-Aldrich, R0278-50ML), protease inhibitor cocktail (Sigma-Aldrich, P8340), and Halt phosphatase inhibitor cocktail (Thermo Fisher, 78420)]. For LCLs, five million cells were pelleted and resuspended in 100 µl of lysis buffer. For both types of cells lysates were centrifuged at 10,000 × g after a 10 min incubation on ice, and the supernatant was collected. Protein was quantified using the DC protein assay (Bio-Rad, 5000112). In total, 50 μg of protein was loaded for HEK293 LRRK2-WT or G2019S-LRRK2 cells. […] Fluorescence intensities were quantified using ImageStudio Lite software (LI-COR), and the signal from the protein of interest was normalized to the fluorescence intensity of either LRRK2 or β-actin. […]

[5] = biological target: T3, human LRRK2 (WT-LRRK2) (Homo sapiens, UniProt Q5S007); experiment: LRRK2 pSer935 quantitative western immunoblot in HEK293 cells stably overexpressing WT-LRRK2; type: cell-based
T3 construct: WT-LRRK2 or G2019S-LRRK2 overexpressing cells show expression of LRRK2 pSer1292 and full-length LRRK2; expressed in transfected cells
Procedure: as §1
as §3, with “cells. Due to the differing endogenous LRRK2 levels, 40 µg of ND02559, 60 µg of ND00264, or 100 µg of ND00011 and ND01618 of protein sample was loaded. Protein samples were incubated at 100 °C for 5 min with NuPAGE Sample loading dye (Thermo Fisher, NP0007) and dithiothreitol as reducing agent.” for “cells.”

[6] = system: R1441C LRRK2 cultures; design: method as in PMID 37384414; settings: R1441C LRRK2 cultures ref 71; cited from earlier work

Row | Compound | IC50 ([1]; G2019S-LRRK2 HEK293 cells, 2 h treatment, read-out: calculated IC50 of LRRK2 pSer1292) [nM] | decrease in LRRK2 pSer1292 levels ([1]; 10 nM) [%] | decrease in LRRK2 pSer1292 levels ([1]; 10 nM, listed as EB-42618) | decrease in LRRK2 pSer1292 levels ([1]; 100 nM) | brain penetration [2] | IC50 ([3]; G2019S LRRK2 HEK293 cell line, 2 h treatment, 10 nM-1 μM titration, read-out: calculated half-maximal inhibition (IC50) of LRRK2 pSer935) [nM] | decrease in LRRK2 pSer935 levels ([3]; G2019S-LRRK2 cells, 10 nM, 2 h) | fold more potent on G2019S LRRK2 than WT LRRK2 (pS935 IC50) ([3]; HEK293 overexpressing cells) [fold] | effect on LRRK2 pSer935 (in words) [4] | IC50 ([5]; WT LRRK2 HEK293 cell line, 2 h treatment, 10 nM-1 μM titration, read-out: calculated half-maximal inhibition (IC50) of LRRK2 pSer935) [nM] | effect on LRRK2 pSer935 over the concentration range (in words) ([5]; WT-LRRK2 cells, 10 nM up to 1 μM, 2 h) | impaired mitophagy and other mitochondrial parameters [6]
1 | CC1=C(C(=O)Nc2ccc3[nH]nc(-c4ccnc(N5CCOCC5)c4)c3c2)C(C)(C)n2nnnc2N1C [EB-42168] | 44 | 30 | dephosphorylated | ~ 70% and 65% | poorly brain penetrant | 54 | no significant dephosphorylation | > 90 | did not impact; also recorded: no change; also recorded: without a change | > 5000 | no inhibition; also recorded: no change; also recorded: no detectable effect | 
2 | C[C@@H]1CN(c2cc(-c3n[nH]c4ccc(OC5(C)CC5)cc34)ncn2)C[C@H](C)O1 [MLi-2, reference compound] |  |  |  |  |  |  |  |  |  |  |  | not corrected
